Assays:
hA1AR = hA1AR (Homo sapiens (Human), UniProt P30542); experiment: Radioligand binding at hA1AR, CHO cell membranes, [3H]R-PIA; conditions: inhibition of binding at 10 μM
hA3AR = hA3AR (Homo sapiens (Human), UniProt P0DMS8); experiment: Radioligand binding at hA3AR, CHO cell membranes, [125I]I-AB-MECA
mA3AR = mA3AR (Mus musculus (Mouse), UniProt Q61618); experiment: Competition binding at mA3AR, HEK293 cell membranes
mA1AR = mA1AR (Mus musculus (Mouse), UniProt Q60612); experiment: Competition binding at mA1AR, HEK293 cell membranes; conditions: mouse (m); inhibition of binding at 10 μM
mA2AAR = mA2AAR (Mus musculus (Mouse), UniProt Q60613); experiment: Competition binding at mA2AAR, HEK293 cell membranes; conditions: mouse (m); inhibition of binding at 10 μM
Sequence of mA2AAR (Q60613 whole entry): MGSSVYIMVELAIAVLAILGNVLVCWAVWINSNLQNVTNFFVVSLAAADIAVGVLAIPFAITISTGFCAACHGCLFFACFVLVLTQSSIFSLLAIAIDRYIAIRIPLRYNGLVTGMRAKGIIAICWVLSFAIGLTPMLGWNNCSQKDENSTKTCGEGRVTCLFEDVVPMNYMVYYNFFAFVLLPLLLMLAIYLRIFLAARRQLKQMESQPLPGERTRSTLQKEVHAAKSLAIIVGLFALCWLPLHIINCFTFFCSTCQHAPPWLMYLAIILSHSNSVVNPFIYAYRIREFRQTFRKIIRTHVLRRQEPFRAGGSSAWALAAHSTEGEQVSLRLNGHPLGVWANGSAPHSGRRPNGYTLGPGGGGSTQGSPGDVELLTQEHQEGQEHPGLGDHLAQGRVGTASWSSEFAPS

[1] = tested on: chronic constriction injury model of neuropathic pain; experiment: CCI model of neuropathic pain, reversal of mechano-allodynia; format: in vivo, mice
[2] = molecular target: Alpha 2B adrenergic receptor (Homo sapiens (Human), UniProt P18089); experiment: Off-target binding, α2B; conditions: read-out: Ki at α2B
Sequence of Alpha 2B adrenergic receptor (P18089 whole entry): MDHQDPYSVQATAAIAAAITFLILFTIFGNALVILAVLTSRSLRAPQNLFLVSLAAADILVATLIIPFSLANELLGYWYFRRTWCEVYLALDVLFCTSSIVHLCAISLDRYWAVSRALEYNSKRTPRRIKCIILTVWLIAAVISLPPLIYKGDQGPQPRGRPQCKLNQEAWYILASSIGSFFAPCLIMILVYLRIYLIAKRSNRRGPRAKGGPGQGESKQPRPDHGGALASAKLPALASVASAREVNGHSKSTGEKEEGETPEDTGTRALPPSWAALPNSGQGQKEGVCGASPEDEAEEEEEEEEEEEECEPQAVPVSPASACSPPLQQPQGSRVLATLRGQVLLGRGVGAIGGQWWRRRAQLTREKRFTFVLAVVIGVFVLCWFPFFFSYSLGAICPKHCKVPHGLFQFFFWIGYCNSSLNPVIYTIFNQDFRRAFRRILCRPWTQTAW
Text: (§1) The results are set forth below.

[3] = molecular target: Alpha 2C adrenergic receptor (Homo sapiens (Human), UniProt P18825); experiment: Off-target binding, α2C; conditions: read-out: Ki at α2C
Sequence of Alpha 2C adrenergic receptor (P18825 whole entry): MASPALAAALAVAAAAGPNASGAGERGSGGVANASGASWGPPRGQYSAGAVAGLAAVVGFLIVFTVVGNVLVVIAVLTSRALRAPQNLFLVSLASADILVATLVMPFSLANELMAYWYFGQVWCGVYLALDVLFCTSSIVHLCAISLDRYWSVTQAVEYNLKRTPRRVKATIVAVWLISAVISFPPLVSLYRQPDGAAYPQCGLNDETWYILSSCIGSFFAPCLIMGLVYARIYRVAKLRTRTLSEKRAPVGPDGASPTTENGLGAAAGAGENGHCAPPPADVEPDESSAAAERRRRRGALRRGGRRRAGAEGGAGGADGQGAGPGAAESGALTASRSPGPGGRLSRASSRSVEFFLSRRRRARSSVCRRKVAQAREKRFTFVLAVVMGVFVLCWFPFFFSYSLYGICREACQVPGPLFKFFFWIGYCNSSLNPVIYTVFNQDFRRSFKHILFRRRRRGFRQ
Text: as §1

5HT2A = experiment: Off-target binding, 5HT2A
h5HT2B = h5HT2B (Homo sapiens (Human), UniProt P41595); experiment: Off-target binding, 5HT2B; conditions: read-out: Ki at 5HT2B
h5HT6 = h5HT6 (Homo sapiens (Human), UniProt P50406); experiment: Off-target binding, 5HT6
h5HT7 = h5HT7 (Homo sapiens (Human), UniProt P34969); experiment: Off-target binding, 5HT7
Sequence of h5HT7 (P34969 whole entry): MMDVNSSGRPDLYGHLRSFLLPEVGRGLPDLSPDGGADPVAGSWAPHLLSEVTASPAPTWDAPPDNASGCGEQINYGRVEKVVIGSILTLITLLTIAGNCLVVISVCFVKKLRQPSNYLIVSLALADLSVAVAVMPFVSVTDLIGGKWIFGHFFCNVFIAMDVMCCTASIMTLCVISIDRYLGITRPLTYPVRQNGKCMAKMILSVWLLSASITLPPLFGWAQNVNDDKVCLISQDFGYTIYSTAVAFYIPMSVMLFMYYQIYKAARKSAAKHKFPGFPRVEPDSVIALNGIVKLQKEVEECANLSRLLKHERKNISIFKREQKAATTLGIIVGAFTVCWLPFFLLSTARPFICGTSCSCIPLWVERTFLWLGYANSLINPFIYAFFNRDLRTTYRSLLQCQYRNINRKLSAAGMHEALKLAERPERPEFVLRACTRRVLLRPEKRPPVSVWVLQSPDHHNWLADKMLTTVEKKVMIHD

hH1 histamine receptor = hH1 histamine receptor (Homo sapiens (Human), UniProt P35367); experiment: Off-target binding, H1
Sequence of hH1 histamine receptor (P35367 whole entry): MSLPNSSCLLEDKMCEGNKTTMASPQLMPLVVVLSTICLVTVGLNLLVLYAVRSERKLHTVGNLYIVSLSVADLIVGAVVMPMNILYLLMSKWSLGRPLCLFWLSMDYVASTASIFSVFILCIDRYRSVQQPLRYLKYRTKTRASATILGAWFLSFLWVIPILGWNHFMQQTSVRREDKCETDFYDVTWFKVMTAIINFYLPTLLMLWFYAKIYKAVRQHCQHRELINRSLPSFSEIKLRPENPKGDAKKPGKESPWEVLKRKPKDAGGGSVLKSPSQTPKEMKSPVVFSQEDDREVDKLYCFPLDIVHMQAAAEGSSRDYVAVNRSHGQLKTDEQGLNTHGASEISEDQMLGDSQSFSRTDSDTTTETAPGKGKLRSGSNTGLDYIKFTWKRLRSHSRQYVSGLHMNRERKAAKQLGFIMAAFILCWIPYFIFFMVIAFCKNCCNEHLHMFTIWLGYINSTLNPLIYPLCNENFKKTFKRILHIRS

hM1 muscarinic receptor = hM1 muscarinic receptor (Homo sapiens (Human), UniProt P11229); experiment: Off-target binding, M1
Sequence of hM1 muscarinic receptor (P11229 whole entry): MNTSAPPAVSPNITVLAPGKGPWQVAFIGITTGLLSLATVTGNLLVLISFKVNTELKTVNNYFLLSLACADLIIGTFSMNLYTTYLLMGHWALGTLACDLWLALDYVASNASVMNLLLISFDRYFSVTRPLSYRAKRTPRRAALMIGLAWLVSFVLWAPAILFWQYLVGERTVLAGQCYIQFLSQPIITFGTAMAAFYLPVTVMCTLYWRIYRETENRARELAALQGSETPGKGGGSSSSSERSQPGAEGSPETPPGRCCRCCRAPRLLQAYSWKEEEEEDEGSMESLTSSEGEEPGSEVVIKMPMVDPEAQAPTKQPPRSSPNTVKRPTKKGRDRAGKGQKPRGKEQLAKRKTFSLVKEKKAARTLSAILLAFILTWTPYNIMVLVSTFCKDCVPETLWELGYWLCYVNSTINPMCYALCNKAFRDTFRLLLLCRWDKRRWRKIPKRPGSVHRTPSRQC
Text: as §1

hM3 muscarinic receptor = hM3 muscarinic receptor (Homo sapiens (Human), UniProt P20309); experiment: Off-target binding, M3
Sequence of hM3 muscarinic receptor (P20309 whole entry, looked up): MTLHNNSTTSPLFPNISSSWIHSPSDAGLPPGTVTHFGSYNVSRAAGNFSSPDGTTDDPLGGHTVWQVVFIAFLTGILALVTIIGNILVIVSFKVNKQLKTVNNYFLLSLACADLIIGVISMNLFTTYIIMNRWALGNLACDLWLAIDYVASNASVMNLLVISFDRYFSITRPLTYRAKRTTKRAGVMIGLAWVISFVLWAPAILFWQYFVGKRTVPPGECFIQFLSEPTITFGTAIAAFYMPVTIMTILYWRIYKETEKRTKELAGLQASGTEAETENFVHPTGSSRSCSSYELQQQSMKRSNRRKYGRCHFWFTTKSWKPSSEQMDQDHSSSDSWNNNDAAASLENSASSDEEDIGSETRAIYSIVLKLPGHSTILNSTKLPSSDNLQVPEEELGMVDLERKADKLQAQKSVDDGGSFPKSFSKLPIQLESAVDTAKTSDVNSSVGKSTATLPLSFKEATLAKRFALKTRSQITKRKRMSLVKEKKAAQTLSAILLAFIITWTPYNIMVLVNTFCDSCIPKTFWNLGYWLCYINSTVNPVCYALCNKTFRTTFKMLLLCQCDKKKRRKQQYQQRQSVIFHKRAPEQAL

hM4 muscarinic receptor = hM4 muscarinic receptor (Homo sapiens (Human), UniProt P08173); experiment: Off-target binding, M4
Sequence of hM4 muscarinic receptor (P08173 whole entry): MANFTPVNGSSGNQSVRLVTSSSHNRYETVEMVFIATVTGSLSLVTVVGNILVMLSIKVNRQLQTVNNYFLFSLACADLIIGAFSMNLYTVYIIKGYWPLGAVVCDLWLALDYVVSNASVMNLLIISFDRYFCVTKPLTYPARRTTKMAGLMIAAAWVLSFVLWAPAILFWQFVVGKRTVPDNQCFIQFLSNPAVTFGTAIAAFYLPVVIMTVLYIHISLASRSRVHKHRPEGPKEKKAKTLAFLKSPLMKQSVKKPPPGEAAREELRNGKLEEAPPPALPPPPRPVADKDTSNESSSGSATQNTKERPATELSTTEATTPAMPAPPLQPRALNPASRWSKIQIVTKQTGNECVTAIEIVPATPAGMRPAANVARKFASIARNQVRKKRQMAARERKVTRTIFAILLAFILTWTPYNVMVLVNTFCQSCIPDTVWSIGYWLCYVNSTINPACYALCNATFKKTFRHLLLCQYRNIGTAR

[4] = tested on: muscarinic, adrenergic, dopamine, GABA, histamine, opiate, serotonin receptors and transporters; experiment: Off-target binding panel (receptors and transporters of Table 5)
Text: as §1

Aqueous solubility = format: physicochemical
[5] = Stability in simulated fluids (gastric, intestinal); format: in vitro ADME
Text: (§2) In vitro stability parameters for selected compounds are set forth in Table 6, in accordance with an embodiment of the invention.

[6] = % Unbound in plasma, human; format: in vitro ADME
% Unbound in plasma, rat = format: in vitro ADME
[7] = % Unbound in plasma, mouse; format: in vitro ADME
[8] = tested on: 5 CYP isozymes (1A2, 2C9, 2C19, 2D6, 3A4); experiment: Inhibition of 5 CYP isozymes; format: in vitro ADME; conditions: read-out: Inhibition of 5 CYP isozymes: IC50
CYP 3A4 = CYP 3A4 (Homo sapiens (Human), UniProt P08684); experiment: CYP inhibition, 3A4; format: in vitro ADME
Sequence of CYP 3A4 (P08684 whole entry): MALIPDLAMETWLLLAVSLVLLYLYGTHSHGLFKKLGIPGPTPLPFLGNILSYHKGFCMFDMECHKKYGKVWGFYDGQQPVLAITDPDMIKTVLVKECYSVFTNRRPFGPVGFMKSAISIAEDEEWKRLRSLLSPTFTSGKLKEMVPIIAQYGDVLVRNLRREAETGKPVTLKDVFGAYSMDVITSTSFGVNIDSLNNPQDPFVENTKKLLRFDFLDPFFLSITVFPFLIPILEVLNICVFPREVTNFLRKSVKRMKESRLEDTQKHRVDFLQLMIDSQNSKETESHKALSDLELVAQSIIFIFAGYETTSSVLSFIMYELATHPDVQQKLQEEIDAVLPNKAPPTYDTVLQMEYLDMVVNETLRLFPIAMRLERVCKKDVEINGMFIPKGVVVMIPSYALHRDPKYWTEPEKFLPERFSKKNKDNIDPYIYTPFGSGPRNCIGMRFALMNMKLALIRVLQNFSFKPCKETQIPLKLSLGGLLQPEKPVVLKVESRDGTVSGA
Text: as §2

[9] = Stability in liver microsomes, human; format: in vitro ADME
[10] = Stability in liver microsomes, rat; format: in vitro ADME
[11] = Stability in liver microsomes, mouse; format: in vitro ADME
[12] = 3 μmol/kg p.o., mice, ipsilateral hind paw

Sequence of hA1AR (P30542 whole entry): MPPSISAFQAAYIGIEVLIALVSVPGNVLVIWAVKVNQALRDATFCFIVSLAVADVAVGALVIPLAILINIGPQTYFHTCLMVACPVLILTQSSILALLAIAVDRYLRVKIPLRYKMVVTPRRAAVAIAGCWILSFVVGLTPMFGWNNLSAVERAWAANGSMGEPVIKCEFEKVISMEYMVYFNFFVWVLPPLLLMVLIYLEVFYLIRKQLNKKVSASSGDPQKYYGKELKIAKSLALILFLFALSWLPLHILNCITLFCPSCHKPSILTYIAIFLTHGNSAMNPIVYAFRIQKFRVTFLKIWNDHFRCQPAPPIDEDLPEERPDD
Sequence of mA3AR (Q61618 whole entry): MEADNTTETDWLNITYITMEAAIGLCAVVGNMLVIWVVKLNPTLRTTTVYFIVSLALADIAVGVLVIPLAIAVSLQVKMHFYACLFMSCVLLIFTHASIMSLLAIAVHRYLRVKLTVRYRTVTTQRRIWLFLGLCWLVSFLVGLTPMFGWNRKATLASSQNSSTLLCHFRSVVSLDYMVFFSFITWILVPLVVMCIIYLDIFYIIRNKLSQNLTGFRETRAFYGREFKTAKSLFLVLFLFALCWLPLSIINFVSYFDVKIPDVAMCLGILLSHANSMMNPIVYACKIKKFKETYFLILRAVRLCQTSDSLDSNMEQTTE

## (1S,2R,3S,4R,5S)-4-(2-((Ferrocen-yl)ethynyl)-6-(methylamino)-9H-purin-9-yl)-2,3-dihydroxy-N-methylbicyclo[3.1.0]hexane-1-carboxamide [Compound 37]
hA1AR
  hA1AR % inhibition: 25 ± 2%
hA3AR
  Ki: 0.00268 ± 0.00044 µM
mA3AR
  Ki: 0.00546 ± 0.00067 µM
mA1AR
  A1AR % inhibition, mouse data (m): 45% ± 2%
mA2AAR
  A2AAR % inhibition, mouse data (m): 4% ± 2%
[1]; 3 μmol/kg p.o., mice, 3 h
  Effect at 3 h (% ± SEM): 78 ± 3%
[1]; [12]
  Max. effect Emax (% ± SEM): 94 ± 6%
  Time of peak protection: 0.5 to 3 h
[1]; CCI model
  Efficacy in reversing NP in vivo (of full reversal at peak effect): ~100%
[2]
  Ki: < 10 µM
[3]
  Ki: < 10 µM
5HT2A
  Ki: < 10 µM
h5HT2B
  Ki: < 10 µM
h5HT6
  Ki: < 10 µM
h5HT7
  Ki: < 10 µM
hH1 histamine receptor
  Ki: < 10 µM
hM1 muscarinic receptor
  Ki: < 10 µM
hM3 muscarinic receptor
  Ki: < 10 µM
hM4 muscarinic receptor
  Ki: < 10 µM
[4]
  Off-target effects compared with MRS5698 and MRS5676: significantly fewer off-target effects
[4]; 10 μM
  Interactions at other receptors of the off-target panel: No significant interactions
Aqueous solubility
  Aq. Solubility (pH 7.4, μg/mL): 14.5 ± 1.0 μg/mL
[5]; simulated gastric fluid
  Stability in simulated fluids (t1/2, min): Gastric: 46.5 min
[5]; simulated intestinal fluid
  Stability in simulated fluids (t1/2, min): Intestinal: 174 min
[6]
  % Unbound in plasma: Human: 7.00%
% Unbound in plasma, rat
  % Unbound in plasma: Rat: 6.32%
[7]
  % Unbound in plasma: Mouse: 4.85%
[8]
  IC50: > 9 µM
CYP 3A4
  IC50: 9.4 µM
[9]
  Stability in liver microsomes (t1/2, min): Human: 3.66 min
[10]
  Stability in liver microsomes (t1/2, min): Rat: 6.64 min
[11]
  Stability in liver microsomes (t1/2, min): Mouse: 1.98 min

Reference: patent US10577368B2 (The United States of America, as represented by the …, priority 2013, dated 2020)
